We go through 59 compounds from the METLIN SMRT retention time set (Domingo-Almenara et al. 2019).

The nature of the data set: gradient 5% acetonitrile 3 min, to 50% in 2 min, to 85% in 15 min, held 3 min, 100 µL/min. The settings on record: column: Zorbax Extend-C18 2.1 x 50 mm; eluents: water / acetonitrile, 0.1% formic acid. A digest of the protocol:
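Retention times come from adduct peaks that were picked computationally and then checked by hand. The standards, pure and pooled in mixtures of ~100 molecules, were run on a Zorbax Extend-C18 column (2.1 × 50 mm, 1.8 μm) at 100 μL/min with water and acetonitrile, each with 0.1% formic acid. Detection was by quadrupole time-of-flight mass spectrometry in positive and negative ionization mode, with a dead volume of 40 μL and a dwell volume of 900 μL.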
As to `Cc1cc(C)cc(NC(=O)C2CCN(S(=O)(=O)c3cc(-c4noc(C5CC5)n4)cs3)CC2)c1`, the RP-LC retention time worked out at 1020 s.
The value for `CCn1ccc(C(=O)Nc2c3c(nn2C)CCC3)n1` was 621 s; that for `COc1ccc(OC)c(NC(=O)CN2C(=O)CC(c3ccc(Cl)cc3)=Nc3cccnc32)c1` was 1040 s.
`COc1ccc(NC(=O)N2CCCC(C)(C(=O)NCc3cccc(OC)c3)C2)cc1` (centres undefined): the RP-LC retention time came to 792 s.
Turning to `Cc1oc(-c2[nH]ncc2C(=O)N(C)C)cc1S(=O)(=O)Nc1cccc(Cl)c1C`, the RP-LC retention time stood at 725 s.
In turn, `CCC(C)NC(=O)N1CC(n2cc(C(=O)NCC3CC3)nn2)C1` (centres undefined) displayed an RP-LC retention time of 662 s.
In the case of `Cc1ccccc1Cn1cc(CCC(=O)NCCN2CCOCC2)c2ccccc21`, the RP-LC retention time worked out at 639 s.
In turn, `O=C(N[C@H]1C[C@@H]2C[C@H]1N(C(=O)NCCc1ccccc1)C2)c1ccccc1` gave an RP-LC retention time of 740 s.
In the case of `CCCCN1N=C(C(=O)N2CCOCC2)S(=O)(=O)c2ccc(Cl)cc21`, the RP-LC retention time came to 889 s.
Take `CCC(C(=O)NC(C)C)n1nc(C)c2nn(-c3ccccc3)c(C)c2c1=O` (centres undefined): the RP-LC retention time was found to be 831 s.
As to `CCOc1ccc(NC(=O)c2cccc(-n3cnnn3)c2)cc1`, the RP-LC retention time turned out to be 737 s.
In the case of `Cc1noc(-c2nc(-c3cccc(C(F)(F)F)c3)no2)n1`, the RP-LC retention time came to 1080 s.
Compound `O=C(Nc1ccc(OCc2nnc(-c3ccccc3)o2)cc1)c1ccc(Cl)nc1` registered an RP-LC retention time of 898 s.
Turning to `CCc1ccccc1NC(=O)N1CCN(c2cc(C)nc(N3CCOCC3)n2)CC1`, the RP-LC retention time worked out at 695 s.
For the compound `COc1ccc(N2CC(c3nnc(NC(=O)c4ccc(Br)cc4)o3)CC2=O)cc1` (centres undefined), the RP-LC retention time was 759 s.
`Cc1cccc(NC(=O)CS(=O)(=O)Cc2ccccc2)n1` came in with an RP-LC retention time of 707 s.
Consider `O=C1CN(c2ccccc2NC(=O)c2cc(-c3ccccc3)on2)CCN1`, for which the RP-LC retention time was 798 s.
For `CCn1nnc2cc(-c3noc(C4CC(=O)N(c5ccc(C)cc5)C4)n3)ccc21` (centres undefined), the RP-LC retention time was found to be 880 s.
The value for `COCCOC(=O)C1=C(C)NC2=C(C(=O)C(C(=O)OC)C(C)C2)C1c1cccc(Cl)c1` (centres undefined) was 899 s; that for `CC(=O)N1CCC2(CC1)N(CC1CC1)C(=O)CS2=O` (centres undefined) was 565 s.
As for `O=c1n(Cc2cccc(C(F)(F)F)c2)nc2c(S(=O)(=O)N3CCCC3)cccn12`, the figure is 885 s; as for `CCCn1cnc2cc(CNC(=O)C3CC(=O)N(c4cccc(Cl)c4)C3)ccc21` (centres undefined), 659 s.
Regarding `O=C(c1ccc2c(c1)CCC(=O)N2Cc1ccccc1)N1CCN(c2ccccc2F)CC1`, the RP-LC retention time was 967 s.
With `COCc1c(C(=O)O)nnn1-c1cccc(C(F)(F)F)c1`, the RP-LC retention time came out at 760 s.
`O=C(NCc1ccccc1C(F)(F)F)C1CCN(c2nnc(-c3ccccc3)o2)CC1` gave an RP-LC retention time of 892 s.
The compound `CCOc1ccc(-c2csc(NC(=O)CCCOc3ccccc3C)n2)cc1` gave an RP-LC retention time of 1240 s.
The compound `CC(=O)Nc1cc(NC(C)=O)ncn1` returned an RP-LC retention time of 644 s.
The compound `COc1ccc(CCC(=O)N2CCN(c3cc(C)c4ccccc4n3)CC2)cc1OC` returned an RP-LC retention time of 645 s.
In turn, `CCCN1C(=O)COc2cc(-c3noc(C(=O)NC4CCCCCC4)n3)ccc21` yielded an RP-LC retention time of 1150 s.
Consider `COc1ccccc1CC(=O)Nc1cccn2c(C3CCC3)nnc12`, for which the RP-LC retention time came to 782 s.
Turning to `CCc1nnc(-c2cn(CC(=O)Nc3c(Cl)cc(OC)cc3OC)c3ccccc23)o1`, the RP-LC retention time was 909 s.
`CCn1nccc1-c1cccc(-c2noc(-c3ccsc3)n2)c1` registered an RP-LC retention time of 1130 s.
As to `CCOC(=O)c1ccc(Nc2c(-c3ccc(OC)cc3)nc3cnccn23)cc1`, the RP-LC retention time was determined as 641 s.
The compound `CCOc1ccc(-c2csc3c(=O)n(Cc4ccc(F)cc4)cnc23)cc1OCC` registered an RP-LC retention time of 1100 s.
As for `Cc1nc2cccnc2n1C1CCN(C(=O)Nc2ccccc2F)CC1`, the figure is 605 s; as for `O=C(Cn1cnc2nc(N3CCCC3)ncc2c1=O)Nc1ccc(Cl)cc1C(F)(F)F`, 782 s; as for `CCN1CCN(C2CCN(C(=O)c3cc(F)ccc3Cl)CC2)C1=O`, 705 s.
In turn, `CCc1noc(C2(NC(=O)c3ccc(Cl)cc3)CCCCC2)n1` came in with an RP-LC retention time of 1010 s.
As to `O=C1N(c2ccc(F)cc2)c2ncccc2S(=O)(=O)N1Cc1ccccc1`, the RP-LC retention time came out at 1020 s.
Take `NS(=O)(=O)c1ccc(NS(=O)(=O)c2cc(-c3noc(C4CCCC4)n3)cs2)cc1`: the RP-LC retention time amounted to 882 s.
In the case of `COc1cc(OC)cc(C(=O)N2CCC3(CC2)NC(=O)c2cc(Cl)ccc2N3C)c1`, the RP-LC retention time was 826 s.
As to `COc1cc(C(=O)NCCNc2cc(-n3cccn3)ncn2)cc(OC)c1OC`, the RP-LC retention time amounted to 631 s.
Compound `CCCOc1nccnc1N1CCC(NC(=O)Cc2cccnc2)C1` (centres undefined) yielded an RP-LC retention time of 671 s.
The value for `CCc1nc2cc(-c3noc(-c4c(F)cccc4Cl)n3)ccc2o1` was 1190 s; that for `Cc1cc(=O)n(CC(=O)NC2CCCC2)c(N2CCOCC2)n1` was 599 s; that for `CN1C(=O)c2cc(C(=O)Nc3ccccc3Cl)nn2CC1(C)C(=O)NC1CCCCC1` (centres undefined) was 887 s.
Take `Cc1cc(N2CCOCC2)nc(N2CCN(S(=O)(=O)c3ccc(-c4ccccc4)cc3)CC2)n1`: the RP-LC retention time was determined as 803 s.
Take `Cc1ccc2c(Nc3ccc(Cl)cc3)c(C(=O)N3CCOCC3)cnc2n1`: the RP-LC retention time was found to be 608 s.
Compound `O=C(NCc1ccc(F)cc1)c1ccnc(N2CCNC(c3ccccc3)C2)c1` (centres undefined) showed an RP-LC retention time of 635 s.
The value for `O=C(CCc1c(-c2ccc(Cl)cc2)nc2ccccn12)NCC1CCCO1` (centres undefined) was 602 s; that for `CC(C)n1cnc2cc(CNC(=O)Cc3cccc(F)c3)ccc21` was 607 s.
On to `Cc1c(C(=O)N2CCCC2)cnn1-c1ncccc1-c1nc(C2CC2)no1`, for which the RP-LC retention time is 706 s.
In the case of `O=C(CSc1nnc2sc3ccccc3n12)Nc1ccc2c(c1)OCO2`, the RP-LC retention time turned out to be 691 s.
`CCCN(CC1CCOC1)S(=O)(=O)Cc1ccccc1Cl` (centres undefined) yielded an RP-LC retention time of 930 s.
In turn, `Cc1cc2occ(CN(C)CCN(C)Cc3cn(-c4cccc(C(F)(F)F)c4)c4ccccc34)c(=O)c2cc1C` came in with an RP-LC retention time of 1090 s.
Compound `Cc1c(Cl)cccc1S(=O)(=O)N1CCC2(CC1)OCCS2` had an RP-LC retention time of 1050 s.
The value for `COc1ccc(/C=C2\CCc3ccccc3C2=O)cc1OC` was 994 s; that for `COc1ccc(OCC(=O)N2CCC(C(=O)NCc3csc(-c4cccs4)n3)CC2)cc1` was 771 s; that for `O=C(c1ccc(Br)cc1)N1CCN(c2nc(CN3CCCCC3)cs2)CC1` was 655 s.
